Counter-ions that a name gives are not always drawn. Like-named read-outs stand apart in the source and are kept apart here.
Tests used:
[1] = target: T1, butyrylcholinesterase (BChE) (EC 3.1.1.8) (Homo sapiens, UniProt P06276); experiment: BChE inhibition assay (modified Ellman's method); assay type: biochemical; conditions: average of 3 replicates ± SD; substrate butyrylthiocholine, pH 8.0
T1 construct: purchased Sigma-Aldrich Pte Ltd (Nucleos, Singapore)
Procedure: (§1) Male Swiss mice (age, 8 weeks; weight, 25–27 g) were purchased from Military Medical University (Hanoi, Vietnam) and housed in a regulated environment (21 ± 2 °C, 12 h light/dark cycle, light period starting at 7 AM) with free access to food and water. Acetylcholinesterase (AChE) (EC 3.1.1.7), butyrylcholinesterase (BChE) (EC 3.1.1.8) and scopolamine hydrobromide (>98 %) were obtained from Sigma-Aldrich Pte Ltd (Nucleos, Singapore). […] Other chemicals were of the highest grade available.
(§2) The inhibitory activities of the ChEs were measured using a modified Ellman’s method. Acetylthiocholine and butyrylthiocholine were used as substrates to examine the inhibitory effect of sample on the AChE and BChE action, respectively. The reaction mixture contained: 140 μL of sodium phosphate buffer (pH 8.0); 20 μL of tested sample solution; and 20 µL of either AChE or BChE solution (5 units/mL), which were mixed and incubated at room temperature for 15 min. The reactions were initiated by the addition of 10 µL of dithiobisnitrobenzoate (DTNB) and 10 μL of either acetylthiocholine or butyrylthiocholine, respectively. The hydrolysis of AChE or BChE was monitored at 412 nm based on the formation of yellow 5-thio-2-nitrobenzoate anion from the reaction of DTNB with thiocholine, which was released by enzymatic hydrolysis of either AChE or BChE. […] The reaction was performed in triplicate and recorded in 96-well microplates using a microplate reader (VersaMax ELISA, USA). Percent inhibition was calculated from (1–S/E) × 100, where E and S were the enzyme activities […] the tested sample, respectively.

[2] = target: T2, Acetylcholinesterase (AChE) (EC 3.1.1.7) (Homo sapiens, UniProt P22303); experiment: AChE inhibition assay (modified Ellman's method); assay type: biochemical
T2 construct: purchased Sigma-Aldrich Pte Ltd (Nucleos, Singapore)
Procedure: as §1, §2

[3] = tested on: scopolamine-induced memory deficit in mice; experiment: Morris water maze test, scopolamine-induced memory dysfunction; assay type: in vivo, male Swiss mice; conditions: scopolamine 1.5 mg/kg i.p. alone, versus vehicle-treated controls
[4] = tested on: scopolamine-induced memory deficit in mice; experiment: Y-maze test, scopolamine-induced memory impairment; assay type: in vivo, male Swiss mice; conditions: scopolamine 1.5 mg/kg i.p. alone; versus vehicle-treated control group, P < 0.001
[5] = tested on: scopolamine-induced memory deficit in mice; experiment: Object recognition test, scopolamine-induced recognition impairment; assay type: in vivo, male Swiss mice; conditions: scopolamine 1.5 mg/kg i.p. alone
[6] = days 3 to 7, P < 0.01 and P < 0.001

T2 sequence (P22303 32-614): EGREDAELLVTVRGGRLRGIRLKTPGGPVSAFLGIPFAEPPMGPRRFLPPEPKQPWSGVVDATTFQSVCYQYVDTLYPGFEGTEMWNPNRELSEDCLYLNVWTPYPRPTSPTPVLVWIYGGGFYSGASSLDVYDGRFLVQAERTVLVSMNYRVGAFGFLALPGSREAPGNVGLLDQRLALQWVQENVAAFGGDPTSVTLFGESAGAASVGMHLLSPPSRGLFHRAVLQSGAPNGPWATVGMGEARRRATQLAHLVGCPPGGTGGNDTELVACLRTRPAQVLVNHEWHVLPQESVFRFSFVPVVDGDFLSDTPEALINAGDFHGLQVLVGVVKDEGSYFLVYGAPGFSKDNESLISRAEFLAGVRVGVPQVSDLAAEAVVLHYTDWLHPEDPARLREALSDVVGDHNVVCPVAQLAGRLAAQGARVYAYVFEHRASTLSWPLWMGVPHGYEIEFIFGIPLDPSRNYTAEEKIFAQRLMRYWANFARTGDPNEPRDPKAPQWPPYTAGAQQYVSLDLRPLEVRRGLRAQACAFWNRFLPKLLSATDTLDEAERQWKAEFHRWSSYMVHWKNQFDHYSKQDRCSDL
T1 sequence (P06276 29-602, species assumed): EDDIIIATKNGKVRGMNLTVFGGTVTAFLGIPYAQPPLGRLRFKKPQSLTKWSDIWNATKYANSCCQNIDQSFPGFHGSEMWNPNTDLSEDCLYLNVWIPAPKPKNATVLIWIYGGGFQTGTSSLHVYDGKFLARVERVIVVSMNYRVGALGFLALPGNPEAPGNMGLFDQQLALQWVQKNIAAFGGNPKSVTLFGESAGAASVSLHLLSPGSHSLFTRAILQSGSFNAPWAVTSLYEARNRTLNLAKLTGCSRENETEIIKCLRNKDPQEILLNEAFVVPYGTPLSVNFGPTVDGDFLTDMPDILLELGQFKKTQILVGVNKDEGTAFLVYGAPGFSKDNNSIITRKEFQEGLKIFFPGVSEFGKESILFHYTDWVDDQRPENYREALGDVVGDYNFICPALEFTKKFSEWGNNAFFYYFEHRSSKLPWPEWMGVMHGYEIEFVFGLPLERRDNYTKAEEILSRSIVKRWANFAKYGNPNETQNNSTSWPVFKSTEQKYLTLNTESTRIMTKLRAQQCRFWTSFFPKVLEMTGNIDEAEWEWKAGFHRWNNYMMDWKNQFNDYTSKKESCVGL

| SMILES | IC50 [1] [µM] | IC50 [2] [µM] | also measured |
| --- | --- | --- | --- |
| Cc1cc(O)c2c(c1)C(=O)c1cccc(O)c1C2=O [Compound 12, chrysophanol] | > 100 | 77.3 ± 0.8 | – |
| COc1cc(C(=O)O)cc(OC)c1O [Compound 21, syringic acid] | – | > 100 | – |
| CC1(C)CC[C@]23CC[C@]4(C)C(CCC5[C@@]6(C)CC[C@H](OC=O)C(C)(C)C6CC[C@]54C)C2[C@H]1OC3=O (stereo partly drawn) [Compound 11, 3β-formyloxy-l8α-oleanano-28,19β-lactone] | > 100 | 86.5 ± 0.6 | – |
| CC1(C)OC(=O)C23CCC1C2CCC1(C)C3CCC2C3(C)CCC(O)C(C)(C)C3CCC21C (stereo not drawn) [Compound 1, (3β)-hopan-3-ol-28,22-olide] | > 100 | 79.5 ± 1.1 | – |
| CN1[C@@H]2C[C@@H](OC(=O)[C@H](CO)c3ccccc3)C[C@H]1[C@@H]1O[C@@H]12 [scopolamine, scopolamine hydrobromide] | – | – | Time in the target quadrant, probe trial day 8, Morris water maze ([3]; P < 0.05): significantly reduced; Escape latencies, training trials, Morris water maze [3, 6]: longer; Swimming distances, training trials, Morris water maze [3, 6]: longer; Spontaneous alternation (%) in Y-maze [4]: significantly lower; Time exploring new versus familiar object, test phase, object recognition test [5]: no total time difference between familiar and new objects |
| COc1cc(C(=O)O)ccc1O [Compound 18, vanillic acid] | > 100 | > 100 | – |
| C=C(C)[C@@H]1CC[C@]2(OO)CC[C@]3(C)C(CCC4[C@@]5(C)CC[C@H](O)C(C)(C)C5CC[C@]43C)C12 (stereo partly drawn) [Compound 5, 28-norlup-20(29)-ene-3β-hydroxy-17β-hydroperoxide] | > 100 | 83.9 ± 0.6 | – |
| COc1cc(/C=C/C(=O)O)ccc1O [Compound 14, ferulic acid] | > 100 | > 100 | – |
| COC(=O)c1cc(O)c(O)c(O)c1 [Compound 20, methyl gallate] | – | > 100 | – |
| C=C(C)[C@@H]1CC[C@]2(C)CC[C@]3(C)[C@H](CC[C@@H]4[C@@]5(C)CC[C@H](O)C(C)(C)[C@@H]5CC[C@]43C)[C@@H]12 [Compound 2, lupeol] | > 100 | 75.7 ± 3.1 | – |
| C=C(C)[C@@H]1CC[C@]2(CO)CC[C@]3(C)[C@H](CC[C@@H]4[C@@]5(C)CC[C@H](O)C(C)(C)[C@@H]5CC[C@]43C)[C@@H]12 [Compound 4, betulin] | – | 93.4 ± 2.2 | – |
| COC1=CC(=O)C=C(OC)C1=O [Compound 13, 2,6-dimethoxyl-p-benzoquinone] | 42.7 ± 7.6 | 54.4 ± 3.4 | – |
| COc1cc(C=O)ccc1O [Compound 19, vanillin] | – | > 100 | – |
| COC(=O)/C=C/c1ccc(O)c(OC)c1 [Compound 15, methyl ferulate] | – | > 100 | – |
| CC1(C)CC[C@]23CC[C@]4(C)C(CCC5[C@@]6(C)CC[C@H](O)C(C)(C)C6CC[C@]54C)C2[C@H]1OC3=O (stereo partly drawn) [Compound 10, 3β-hydroxy-18α-olean-28,19β-olide] | – | > 100 | – |
| C=C(C)[C@@H]1CC[C@]2(C(=O)O)CC[C@]3(C)C(CCC4[C@@]5(C)CCC(=O)C(C)(C)C5CC[C@]43C)C12 (some centres unmarked) [Compound 8, betulonic acid] | > 100 | – | IC50 ([2]; read-out: IC50 AChE, average of 3 replicates ± SD, substrate acetylthiocholine, pH 8.0): 94.6 ± 1.5 µM |
| C=C(C)[C@@H]1CC[C@]2(O)CC[C@]3(C)C(CCC4[C@@]5(C)CC[C@H](O)C(C)(C)C5CC[C@]43C)C12 (stereo partly drawn) [Compound 3, 28-norlup-20(29)-ene-3β,17β-diol] | > 100 | > 100 | – |
| C=C(C)[C@@H]1CC[C@]2(C(=O)O)CC[C@]3(C)[C@H](CC[C@@H]4[C@@]5(C)CC[C@H](O)C(C)(C)[C@@H]5CC[C@]43C)[C@@H]12 [Compound 7, betulinic acid] | – | 62 ± 2.2 | – |
| COC(=O)C(Cc1ccc(O)cc1)C(=O)OC [Compound 16, methyl 3-(4-hydroxyphenyl)-2-methoxycarbonylpropionate] | > 100 | > 100 | – |
| O=C(O)c1ccc(O)c(O)c1 [Compound 17, protocatechuic acid] | – | > 100 | – |
